Results from ChEMBL document CHEMBL1201862, “PubChem BioAssay data set” (2004).
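Compound exposure: 48 hours, 5 concentrations, 96-well plates. GI50: concentration for 50% inhibition of growth.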 Calls of active or inactive are those of the source. No stated cut-off is given here; in the data, active = GI50 up to about 1.1 µM and inactive = higher.

Tests used:
Experiment in all cases: NCI tumour cell line growth inhibition, 48 h
A498 = system: A498
A549 = system: A549
COLO 205 = system: COLO 205
HOP-92 = system: HOP-92
HT-29 = system: HT-29
Hs-578T = system: Hs-578T
K562 = system: K562
MCF7 = system: MCF7
MOLT-4 = system: MOLT-4
Malme-3M = system: Malme-3M
NCI-H522 = system: NCI-H522
NCI/ADR-RES = system: NCI/ADR-RES
OVCAR-3 = system: OVCAR-3
OVCAR-5 = system: OVCAR-5
PC-3 = system: PC-3
SN12C = system: SN12C
UACC-257 = system: UACC-257
UACC-62 = system: UACC-62
UO-31 = system: UO-31
OVCAR-4 = system: OVCAR-4

| SMILES | GI50 (A498) | GI50 (A549) | GI50 (COLO 205) | GI50 (HOP-92) | GI50 (HT-29) | GI50 (Hs-578T) | GI50 (K562) | GI50 (MCF7) | GI50 (MOLT-4) | GI50 (Malme-3M) | GI50 (NCI-H522) | GI50 (NCI/ADR-RES) | GI50 (OVCAR-3) | GI50 (OVCAR-5) | GI50 (PC-3) | GI50 (SN12C) | GI50 (UACC-257) | GI50 (UACC-62) | GI50 (UO-31) | GI50 (OVCAR-4) |
| --- | --- | --- | --- | --- | --- | --- | --- | --- | --- | --- | --- | --- | --- | --- | --- | --- | --- | --- | --- | --- |
| O=C(NC12CC3CC(CC(C3)C1)C2)n1cnc2cncnc21 | 65.9 µM (inactive) | 47.5 µM (inactive) | 20.6 µM (inactive) | 28.2 µM (inactive) | 28.4 µM (inactive) | 54.6 µM (inactive) | 35.1 µM (inactive) | 27.5 µM (inactive) | 33.3 µM (inactive) | 26 µM (inactive) | 16.1 µM (inactive) | 28.6 µM (inactive) | 18.2 µM (inactive) | 34.3 µM (inactive) | 25.8 µM (inactive) | 36 µM (inactive) | 56.5 µM (inactive) | 39.2 µM (inactive) | 91.2 µM (inactive) | – |
| Cc1ccc2c(=O)cc(-c3cccc(F)c3)[nH]c2n1 | 0.052 µM (active) | 0.0476 µM (active) | 0.0224 µM (active) | 0.9 µM (active) | 0.0359 µM (active) | 0.0237 µM (active) | 0.0313 µM (active) | 0.0334 µM (active) | 0.0542 µM (active) | 0.0379 µM (active) | 0.0188 µM (active) | 0.0196 µM (active) | 0.0201 µM (active) | 0.0564 µM (active) | 0.0327 µM (active) | 0.0746 µM (active) | 0.0395 µM (active) | 0.0461 µM (active) | – | 1.61 µM (inactive) |
| CCCCCCc1cc2cc(C(=O)NCc3ccccc3)c(=N)oc2cc1O | > 100 µM (inactive) | > 100 µM (inactive) | > 100 µM (inactive) | > 100 µM (inactive) | > 100 µM (inactive) | > 100 µM (inactive) | > 100 µM (inactive) | > 100 µM (inactive) | > 100 µM (inactive) | > 100 µM (inactive) | > 100 µM (inactive) | > 100 µM (inactive) | > 100 µM (inactive) | > 100 µM (inactive) | > 100 µM (inactive) | > 100 µM (inactive) | > 100 µM (inactive) | > 100 µM (inactive) | – | > 100 µM (inactive) |
| Cc1c2cc[n+](CCN3CCCCC3)cc2c(C)c2c1[nH]c1ccc(O)cc12 | 10.6 µM (inactive) | 1.35 µM (inactive) | 1.66 µM (inactive) | 5.11 µM (inactive) | 8 µM (inactive) | 2.84 µM (inactive) | 2.69 µM (inactive) | 1.76 µM (inactive) | – | 2.39 µM (inactive) | 1.99 µM (inactive) | 16.3 µM (inactive) | 6.05 µM (inactive) | 10.5 µM (inactive) | 7.96 µM (inactive) | 0.401 µM (active) | 13.7 µM (inactive) | 5.47 µM (inactive) | 17.1 µM (inactive) | 1.13 µM (inactive) |
| COc1cc2oc3ccccc3c(=O)c2cc1CSc1ccccc1N | 17.3 µM (inactive) | 23.4 µM (inactive) | 15.8 µM (inactive) | 35.2 µM (inactive) | 18.7 µM (inactive) | 36 µM (inactive) | 3.91 µM (inactive) | 13.6 µM (inactive) | 4.83 µM (inactive) | 18.6 µM (inactive) | 8.89 µM (inactive) | 6.5 µM (inactive) | 18.5 µM (inactive) | > 81.8 µM (inactive) | 14.5 µM (inactive) | 46.8 µM (inactive) | 47.5 µM (inactive) | 9.71 µM (inactive) | – | 13.6 µM (inactive) |
| CCC(C)C(NC(=O)c1cccc2c(=O)c3ccccc3[nH]c12)C(=O)O (centres undefined) | > 100 µM (inactive) | 98.9 µM (inactive) | > 100 µM (inactive) | 94.4 µM (inactive) | > 100 µM (inactive) | > 100 µM (inactive) | 91.8 µM (inactive) | > 100 µM (inactive) | 82.6 µM (inactive) | > 100 µM (inactive) | > 100 µM (inactive) | > 100 µM (inactive) | > 100 µM (inactive) | > 100 µM (inactive) | > 100 µM (inactive) | > 100 µM (inactive) | – | > 100 µM (inactive) | 48.6 µM (inactive) | 43.8 µM (inactive) |
